Results reported in publication PMC4172859, “Positive Darwinian selection is a driving force for the diversification of terpenoid biosynthesis in the genus Oryza” (BMC Plant Biology, 2014).

How the values were obtained:
Assay in all cases: SPME GC-MS product analysis, recombinant E. coli extract
Type in all cases: biochemical
Conditions in all cases: 10 uM FPP, 10 mM MgCl2, pH 7.0, 30 °C; mere turnover
[1] = molecular target: T1, OryzaTPS1 (O. glaberrima) (Oryza glaberrima, UniProt I1QFJ1)
T1 construct: gene LOC127781497; full-length cDNA in pEXP5-CT/TOPO, E. coli BL21 Codon Plus, desalted extract
T1 sequence (I1QFJ1 1-575): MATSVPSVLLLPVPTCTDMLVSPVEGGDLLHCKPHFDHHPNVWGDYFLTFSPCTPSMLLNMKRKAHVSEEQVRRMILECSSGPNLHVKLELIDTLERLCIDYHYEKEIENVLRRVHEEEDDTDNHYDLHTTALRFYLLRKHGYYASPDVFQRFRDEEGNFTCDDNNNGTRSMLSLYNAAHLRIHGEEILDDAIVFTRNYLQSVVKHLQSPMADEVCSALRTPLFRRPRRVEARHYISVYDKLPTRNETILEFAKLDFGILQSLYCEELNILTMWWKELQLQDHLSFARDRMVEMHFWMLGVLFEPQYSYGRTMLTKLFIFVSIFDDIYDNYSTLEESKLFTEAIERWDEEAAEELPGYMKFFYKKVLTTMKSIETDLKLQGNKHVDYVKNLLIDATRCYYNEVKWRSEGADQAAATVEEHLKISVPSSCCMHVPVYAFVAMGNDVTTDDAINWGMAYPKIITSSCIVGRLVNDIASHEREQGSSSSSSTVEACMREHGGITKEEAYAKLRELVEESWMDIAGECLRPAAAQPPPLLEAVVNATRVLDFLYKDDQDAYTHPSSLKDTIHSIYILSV

[2] = molecular target: T2, OryzaTPS1 (O. glumaepatula) (Oryza glumipatula, UniProt A0A076L503)
T2 construct: full-length cDNA in pEXP5-CT/TOPO, E. coli BL21 Codon Plus, desalted extract
T2 sequence (A0A076L503 1-574): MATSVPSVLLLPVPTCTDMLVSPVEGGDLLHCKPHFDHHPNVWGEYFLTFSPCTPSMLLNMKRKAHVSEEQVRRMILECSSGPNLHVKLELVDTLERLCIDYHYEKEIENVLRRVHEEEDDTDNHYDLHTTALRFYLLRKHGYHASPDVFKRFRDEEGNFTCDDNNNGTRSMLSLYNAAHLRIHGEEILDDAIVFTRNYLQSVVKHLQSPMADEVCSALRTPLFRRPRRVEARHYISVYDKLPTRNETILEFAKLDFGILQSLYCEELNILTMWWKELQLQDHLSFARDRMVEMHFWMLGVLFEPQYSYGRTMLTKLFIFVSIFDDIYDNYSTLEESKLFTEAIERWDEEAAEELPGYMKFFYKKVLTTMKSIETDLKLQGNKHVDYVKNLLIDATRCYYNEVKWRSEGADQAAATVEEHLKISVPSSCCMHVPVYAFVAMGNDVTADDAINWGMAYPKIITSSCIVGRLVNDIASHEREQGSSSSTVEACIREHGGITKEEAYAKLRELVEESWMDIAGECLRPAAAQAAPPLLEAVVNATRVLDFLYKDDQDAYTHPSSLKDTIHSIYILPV

[3] = molecular target: T3, OryzaTPS1 (O. nivara) (Oryza nivara, UniProt A0A076L4Z9)
T3 construct: full-length cDNA in pEXP5-CT/TOPO, E. coli BL21 Codon Plus, desalted extract
T3 sequence (A0A076L4Z9 1-575): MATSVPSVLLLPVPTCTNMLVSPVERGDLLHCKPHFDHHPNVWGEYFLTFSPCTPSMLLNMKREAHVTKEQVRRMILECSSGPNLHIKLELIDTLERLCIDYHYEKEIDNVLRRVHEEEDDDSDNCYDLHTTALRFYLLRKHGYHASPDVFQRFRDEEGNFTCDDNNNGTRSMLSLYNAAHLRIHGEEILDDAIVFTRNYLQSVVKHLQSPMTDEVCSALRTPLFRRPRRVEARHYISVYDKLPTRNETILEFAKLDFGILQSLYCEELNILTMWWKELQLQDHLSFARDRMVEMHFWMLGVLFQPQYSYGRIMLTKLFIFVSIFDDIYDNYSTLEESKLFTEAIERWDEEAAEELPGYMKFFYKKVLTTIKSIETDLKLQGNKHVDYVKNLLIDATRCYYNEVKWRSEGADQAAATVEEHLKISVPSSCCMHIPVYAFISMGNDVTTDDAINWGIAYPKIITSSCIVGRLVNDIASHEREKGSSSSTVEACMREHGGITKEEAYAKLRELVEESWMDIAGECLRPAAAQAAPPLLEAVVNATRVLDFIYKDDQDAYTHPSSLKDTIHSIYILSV

[4] = molecular target: T4, ObTPS1 (Oryza barthii, UniProt A0A0D3GW75)
T4 construct: full-length cDNA in pEXP5-CT/TOPO, E. coli BL21 Codon Plus, desalted extract
T4 sequence (A0A0D3GW75 1-575): T1 sequence (I1QFJ1 1-575)

[5] = molecular target: T5, ObTPS1 (Oryza barthii, UniProt A0A0D3GW75, F318L/C429G/V433I)
T5 construct: full-length cDNA in pEXP5-CT/TOPO, E. coli BL21 Codon Plus, desalted extract
T5 sequence (A0A0D3GW75 entry or part of it F318L/C429G/V433I): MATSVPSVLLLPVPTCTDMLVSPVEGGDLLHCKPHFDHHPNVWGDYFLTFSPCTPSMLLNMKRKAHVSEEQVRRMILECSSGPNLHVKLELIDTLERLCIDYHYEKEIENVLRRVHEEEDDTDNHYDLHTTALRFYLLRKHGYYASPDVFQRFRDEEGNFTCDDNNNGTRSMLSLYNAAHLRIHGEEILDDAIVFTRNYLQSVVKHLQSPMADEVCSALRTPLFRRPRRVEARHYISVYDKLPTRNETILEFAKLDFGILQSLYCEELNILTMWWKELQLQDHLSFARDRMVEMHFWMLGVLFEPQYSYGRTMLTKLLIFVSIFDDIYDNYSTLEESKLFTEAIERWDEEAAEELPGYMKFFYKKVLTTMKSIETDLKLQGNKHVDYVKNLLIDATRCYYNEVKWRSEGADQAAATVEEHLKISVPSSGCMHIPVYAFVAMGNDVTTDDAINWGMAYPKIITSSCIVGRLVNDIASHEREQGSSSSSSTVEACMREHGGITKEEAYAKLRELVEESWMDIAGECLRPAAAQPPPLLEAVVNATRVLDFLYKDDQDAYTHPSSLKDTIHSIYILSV

CC(C)=CCC/C(C)=C/CC/C(C)=C/COP(=O)(O)OP(=O)(O)O [(E, E)-farnesyl diphosphate]
SPME GC-MS product analysis, recombinant E. coli extract [1]: All these proteins were biochemically active | SPME GC-MS product analysis, recombinant E. coli extract [2]: All these proteins were biochemically active | SPME GC-MS product analysis, recombinant E. coli extract [3]: All these proteins were biochemically active | SPME GC-MS product analysis, recombinant E. coli extract [4]: The enzymes were expressed in E. coli, extracted, and incubated with the substrate (E, E)-farnesyl diphosphate | SPME GC-MS product analysis, recombinant E. coli extract [5]: The triple mutant ObTPS1-F318L + C429G + V433I produced comparable amounts of germacrene A, germacrene D
